According to patent publication US12365643B2, “Phenoxy carboxylic acid compounds and medical uses thereof” (QINGDAO RISING BIOTECHNOLOGY CO., LTD, priority 2018, dated 2025):

What was measured:
phosphorylated GSK3β = test: Phosphorylated GSK3β level by Western blotting in HepG2; assay type: cell-based, human; conditions: 1 μM, 24 hours, HepG2, Western blotting (FIG. 6B)
Source text: (§1) Carnitine palmitoyltransferase (CPT1α) is a rate-limiting enzyme of fatty acid oxidation. When the body or tissues are lacking in energy, CPT1α catalyzes the entry of fatty acids into mitochondria for […], and at the same time, CPT1α is also involved in the regulation of fatty acid-induced insulin resistance and inflammation. Protein kinase B/glycogen synthase kinase 3β (AKT/GSK3β) signaling pathway and insulin receptor substrate 1 (IRS-1) are key signaling pathways that regulate glucose metabolism in response to insulin signal. Therefore, by determining the effects of compounds on the CPT1α protein level and the AKT, GSK3β and IRS-1 protein phosphorylation levels, it is possible to evaluate the regulatory effects of the compounds on glycolipid metabolism.
(§2) After human liver cancer cells HepG2 were incubated with the compound of the present application or the control drug at 1 μM for 24 hours, the CPT1α protein level and the AKT, GSK3β and IRS-1 phosphorylated protein levels in the cells were determined by Western blotting; after gray-scale scanning by using Image J15.0.1, normalization was performed by using β-tubulin protein level as internal control, and the quantitative analysis results were shown in FIG. 6.

[1] = tested on: RAW264.7 mouse macrophages; test: Determination of NO generation induced by LPS; assay type: cell-based; conditions: 10 μM, 1 μg/mL LPS, 24 hours, RAW264.7 (FIG. 2)
Protocol: The results are expressed as the multiple of the NO content in the cell culture supernatant of the administration group (10 μM) as compared with that in the cell culture supernatant of the control group (DMSO group), in which compared with the control group, *P<0.05, **P<0.01, ***P<0.001.
NO is a reactive nitrogen species (RNS) and an important gas signal molecule. Macrophages could convert arginine into NO which participated in the body's inflammatory response. Therefore, determination of inhibitory activity of a drug on NO generation was one of the classic methods to evaluate drug's anti-inflammatory ability. RAW264.7 cells at exponential growth phase were inoculated into a 96-well plate at 1×10^4 cells/200 μL. well of medium. After adherence, the medium was discarded, and the cells were subjected to drug treatments. Normal group (serum-free medium), LPS model group (serum-free medium containing 1 μg/mL LPS), LPS+drug group (serum-free medium containing 1 μg/mL LPS, 10 μM gemfibrozil or the compound of the present application) were established, and 3 repeated wells were set for each group. After 24 hours incubation in incubator, cell supernatant of each well was collected and assay was performed according to the instructions of NO determination kit (Nanjing Jiancheng). The absorbance value of each well at wavelength of 540 nm was read and NO content was calculated.

ACOX1 = ACOX1 mRNA expression by real-time quantitative PCR in HepG2; assay type: cell-based, human; conditions: 1 μM, 6 hours, HepG2 (FIG. 5D)
Source text: (§3) Peroxisome proliferation factor activated receptor (PPAR) is an important nuclear receptor that regulates glycolipid metabolism, including three subtypes: α, β/δ and γ. Peroxisome proliferator-activated receptor γ coactivator 1α (PGC-1α) is its auxiliary transcriptional activator. Acyl-CoA oxidase 1 (ACOX1) is the first rate-limiting enzyme for fatty acid β oxidation. Fatty acid binding protein 1 (FABP1) is highly expressed in liver, and can bind fatty acid, heme and other molecules to reduce their toxicity and damage. Up-regulating the expression level of these genes helps to improve the body's metabolism, and their agonists are an important class of anti-metabolic drugs. After the compound of the present application (1 μM) and the control drug gemfibrozil (1 μM) were incubated with human liver cancer cells HepG2 for 6 hours, real-time fluorescent quantitative PCR method was used to determine the relative expression of mRNA of related genes in the cells.
(§4) The company which synthesized the primers was Suzhou Hongxun Biotechnology Co., Ltd. Tranzol reagent (Tranzol total RNA extraction reagent, TransGen Biotech) was used to extract total RNA from tissues. 5× All-In-One RT MasterMix reverse transcription kit (Abcam, USA) and real-time quantitative PCR Master Mix (Aidlab Biotechnologies Co., Ltd) were used. Bio-Rad CFX Connect™ Real-Time PCR Detection System for qPCR was used, and 2^−ΔΔCT method was used for data analysis. The expression level of mRNA in the normal control group was set to 1, and the relative expression level of mRNA in the administration group was calculated, so as to confirm whether the active compound affected the PPAR pathway, thereby further regulating lipid metabolism.

phosphorylated IRS-1 = test: Phosphorylated IRS-1 level by Western blotting in HepG2; assay type: cell-based, human; conditions: 1 μM, 24 hours, HepG2, Western blotting (FIG. 6C)
Source text: as §1, §2

CPT1α = CPT1α protein level by Western blotting in HepG2; assay type: cell-based, human; conditions: 1 μM, 24 hours, HepG2, Western blotting (FIG. 6A)
Source text: as §1, §2

NF-κB = NF-κB luciferase reporter gene transcriptional activity in SW480 cells; assay type: cell-based, human; conditions: 50 μM, 6 hours, SW480 stably transfected (FIG. 3)
Protocol: (§5) NF-κB was the most important inflammatory signal pathway. SW480 human colon cancer cells stably transfected with a luciferase reporter gene driven by NF-κB were used to determine the effects of the compound of the present application and the control drug gemfibrozil on NF-κB transcriptional activity, which comprised the following steps. • (1) Cells stably transfected with NF-κB Luc were cultivated to exponential growth, inoculated at a culture medium concentration of 1×10^5/[…] in a 24-well plate, and cultured for 24 hours, the medium was discarded, and the test compound or gemfibrozil formulated with serum-free medium at 50 μM were added to the 24-well plate and incubation was continued for 6 hours. After washing once with 200 μL of PBS, 100 μL of reporter gene cell lysis buffer was added, the cells were lysed on ice for 10 minutes, and the cell lysate was collected by pipetting. • (2) After centrifugation was performed at 8000 rpm and 4° C. for 10 min, the supernatant was pipetted for fluorescence assay. • (3) The measurement gap time of chemiluminescence analyzer was set to 2 s and the measurement time was set to 10 s. Automatic sample injection was adopted, 50 μL of luciferase assay reagent was added to each well. The reporter gene cell lysis buffer was used as a blank control. • (4) After centrifugation, the supernatant was taken, and the BCA method was used to determine the protein concentration so as to normalize the reporter gene results.

[2] = tested on: antioxidant response element (ARE); test: ARE luciferase reporter gene activity in HepG2 cells; assay type: cell-based, human; conditions: 50 μM, HepG2 stably transfected (FIG. 4)
Protocol: as §5
In this experimental example, the luciferase activity in HepG2 human liver cancer cells stably transfected with a luciferase reporter gene driven by antioxidant response element (ARE) was determined to evaluate the regulatory effects of the compound of the present application and gemfibrozil on the transcriptional activity of transcription factor Nrf2 and the cellular oxidative stress response signals, in which the operation process of the reporter gene assay was the same as that of Experimental Example 2.2.

PGC1α = PGC1α mRNA expression by real-time quantitative PCR in HepG2; assay type: cell-based, human; conditions: 1 μM, 6 hours, HepG2 (FIG. 5C)
Source text: as §3, §4

PPARγ = PPARγ mRNA expression by real-time quantitative PCR in HepG2; assay type: cell-based, human; conditions: 1 μM, 6 hours, HepG2 (FIG. 5B)
Source text: as §3, §4

Structure (SMILES) | phosphorylation level of GSK3β (phosphorylated GSK3β) | NO generation induced by LPS [1] | ACOX1 mRNA expression (ACOX1) | phosphorylation level of IRS-1 (phosphorylated IRS-1) | CPT1α protein level (CPT1α) | activity of NF-κB reporter gene (NF-κB) | ARE reporter gene activity [2] | PGC1α mRNA expression (PGC1α) | PPARγ mRNA expression (PPARγ)
Cc1cc(Br)c(C)c(Br)c1OCCCC(C)(C)C(=O)O [BJMU-109, 5-(2,4-dibromo-3,6-dimethylphenoxy)-2,2-dimethylpentanoic acid] | significantly increased the phosphorylation level of GSK3β | could inhibit NO generation | significantly induced ACOX1 mRNA expression | significantly increased the phosphorylation level of IRS-1 | – | – | – | – | –
Cc1cc(F)c(C)c(OCCCC(C)(C)C(=O)O)c1 [BJMU-213, 5-(3-fluoro-2,5-dimethylphenoxy)-2,2-dimethylpentanoic acid] | significantly increased the phosphorylation level of GSK3β | – | – | significantly increased the phosphorylation level of IRS-1 | significantly increased CPT1α protein level | – | – | – | –
Cc1ccc(C)c(OCCCC(C)(C)C(=O)O)c1Br [BJMU-404, 5-(2-bromo-3,6-dimethylphenoxy)-2,2-dimethylpentanoic acid] | significantly increased the phosphorylation level of GSK3β | – | significantly induced ACOX1 mRNA expression | significantly increased the phosphorylation level of IRS-1 | significantly increased CPT1α protein level | could significantly inhibit the activity of NF-κB reporter gene | could significantly activate the ARE reporter gene activity | – | –
Cc1cc(Br)c(C)c(C)c1OCCCC(C)(C)C(=O)O [BJMU-409, 5-(4-bromo-2,3,6-trimethylphenoxy)-2,2-dimethylpentanoic acid] | significantly increased the phosphorylation level of GSK3β | – | significantly induced ACOX1 mRNA expression | significantly increased the phosphorylation level of IRS-1 | significantly increased CPT1α protein level | – | could significantly activate the ARE reporter gene activity | significantly induced PGC1α mRNA expression | –
Cc1cc(OCCCC(C)(C)C(=O)O)c(CO)cc1Br [BJMU-502, 5-(4-bromo-2-(hydroxymethyl)-5-methylphenoxy)-2,2-dimethylpentanoic acid] | – | could inhibit NO generation | significantly induced ACOX1 mRNA expression | significantly increased the phosphorylation level of IRS-1 | significantly increased CPT1α protein level | – | could significantly activate the ARE reporter gene activity | significantly induced PGC1α mRNA expression | significantly induced PPARγ mRNA expression
